Laboratory results: patent US20210134398A1, “Combinatorial Chemistry Computational System and Enhanced Selection Method” (Southern Methodist University, priority 2019, published 2021)
Where two headings read alike, the source gives them in different places.

Assays:
[1] = target: P-gp (P-gp over-expressing cell line, DU145TXR) (Homo sapiens, UniProt P08183); test: Cellular accumulation of experimental compounds by LC-MS/MS with and without tariquidar; details: for Transport substrate for P-gp: not told
P-gp (P-gp over-expressing cell line, DU145TXR), sequence (P08183 whole entry): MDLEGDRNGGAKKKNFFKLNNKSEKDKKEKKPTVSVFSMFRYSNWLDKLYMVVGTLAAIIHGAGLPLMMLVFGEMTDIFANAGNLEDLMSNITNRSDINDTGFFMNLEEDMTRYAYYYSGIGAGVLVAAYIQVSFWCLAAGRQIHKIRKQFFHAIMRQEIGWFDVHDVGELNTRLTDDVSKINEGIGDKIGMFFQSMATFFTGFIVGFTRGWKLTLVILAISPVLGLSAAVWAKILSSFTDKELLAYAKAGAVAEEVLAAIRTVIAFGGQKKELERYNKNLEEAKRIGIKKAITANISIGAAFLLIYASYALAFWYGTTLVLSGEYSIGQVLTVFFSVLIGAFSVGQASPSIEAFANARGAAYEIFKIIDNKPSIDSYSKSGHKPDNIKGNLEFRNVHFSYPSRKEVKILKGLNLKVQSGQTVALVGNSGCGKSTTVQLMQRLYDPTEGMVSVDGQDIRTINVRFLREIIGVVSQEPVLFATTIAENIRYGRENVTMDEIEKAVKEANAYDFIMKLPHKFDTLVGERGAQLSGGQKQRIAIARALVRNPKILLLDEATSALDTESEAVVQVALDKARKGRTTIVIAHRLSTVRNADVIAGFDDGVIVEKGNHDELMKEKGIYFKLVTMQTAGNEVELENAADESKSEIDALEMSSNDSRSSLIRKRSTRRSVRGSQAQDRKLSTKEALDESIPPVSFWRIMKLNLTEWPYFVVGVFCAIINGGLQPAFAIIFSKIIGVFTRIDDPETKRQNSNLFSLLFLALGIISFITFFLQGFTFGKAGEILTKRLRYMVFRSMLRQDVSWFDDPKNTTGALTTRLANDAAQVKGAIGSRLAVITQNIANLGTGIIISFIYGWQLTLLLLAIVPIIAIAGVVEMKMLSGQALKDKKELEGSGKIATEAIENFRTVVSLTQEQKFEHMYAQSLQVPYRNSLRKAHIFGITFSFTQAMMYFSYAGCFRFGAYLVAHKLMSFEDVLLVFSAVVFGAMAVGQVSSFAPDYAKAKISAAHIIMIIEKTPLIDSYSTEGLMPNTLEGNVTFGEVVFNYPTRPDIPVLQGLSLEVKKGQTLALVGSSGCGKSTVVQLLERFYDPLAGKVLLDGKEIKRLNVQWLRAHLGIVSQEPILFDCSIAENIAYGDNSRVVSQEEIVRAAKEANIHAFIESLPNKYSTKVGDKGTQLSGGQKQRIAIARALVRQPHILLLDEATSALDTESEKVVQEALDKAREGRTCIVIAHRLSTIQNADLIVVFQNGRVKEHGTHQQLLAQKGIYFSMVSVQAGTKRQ
Experimental: Stimulation of basal ATPase by 29-variants was used as an indicator that a compound may be a P-gp transport substrate. Effects on stimulated P-gp ATPase activity indicated whether a compound directly interfered with ATP usage by the protein (***, p<0.001; **, p<0.01; *, p<0.1; NS, not significant). Quantitative cellular accumulation of 29-variants was performed using LC-MS/MS and is presented as a ratio of the cellular amounts of 29-variants in the presence of P-gp inhibitor, tariquidar, divided by amounts accumulated in its absence. […] Binding of an ATP analog, SL-ATP, to P-gp was used to determine whether ATP binding to P-gp was affected by the 29-variants. Values +/−standard deviations are shown for at least three different P-gp preparations and three independent SL-ATP titration experiments. The values for SL-ATP binding in the presence of 29 were taken directly from Brewer et al. (2014).
Intracellular accumulation of compound 29 variants. Cell accumulation assays for each of the 29 variants were performed as in reference^28 to more directly assess whether the compounds were indeed transport substrates for P-gp.
Cellular Accumulation Assays for Experimental P-gp Inhibitors. Cells used (DU145TXR), cell culturing, cell exposure to compounds, cellular handling and extractions were performed as described in^28. LC-MS/MS methods were performed as described in^71 and as modified in^28.

[2] = target: T1, cysteineless mouse P-glycoprotein (Mus musculus, UniProt P21447, C1070A/C1121A/C1223A/C133A/C427A/C638A/C669A/C713A/C952A); test: SL-ATP (spin-labeled ATP analog) binding titration by ESR; details: for Maximum ATP binding: in the presence of the compound, ± standard deviation
T1 construct: made in house; host or cells: Pichia pastoris
T1 sequence (P21447 whole entry C133A/C427A/C638A/C669A/C713A/C952A/C1070A/C1121A/C1223A): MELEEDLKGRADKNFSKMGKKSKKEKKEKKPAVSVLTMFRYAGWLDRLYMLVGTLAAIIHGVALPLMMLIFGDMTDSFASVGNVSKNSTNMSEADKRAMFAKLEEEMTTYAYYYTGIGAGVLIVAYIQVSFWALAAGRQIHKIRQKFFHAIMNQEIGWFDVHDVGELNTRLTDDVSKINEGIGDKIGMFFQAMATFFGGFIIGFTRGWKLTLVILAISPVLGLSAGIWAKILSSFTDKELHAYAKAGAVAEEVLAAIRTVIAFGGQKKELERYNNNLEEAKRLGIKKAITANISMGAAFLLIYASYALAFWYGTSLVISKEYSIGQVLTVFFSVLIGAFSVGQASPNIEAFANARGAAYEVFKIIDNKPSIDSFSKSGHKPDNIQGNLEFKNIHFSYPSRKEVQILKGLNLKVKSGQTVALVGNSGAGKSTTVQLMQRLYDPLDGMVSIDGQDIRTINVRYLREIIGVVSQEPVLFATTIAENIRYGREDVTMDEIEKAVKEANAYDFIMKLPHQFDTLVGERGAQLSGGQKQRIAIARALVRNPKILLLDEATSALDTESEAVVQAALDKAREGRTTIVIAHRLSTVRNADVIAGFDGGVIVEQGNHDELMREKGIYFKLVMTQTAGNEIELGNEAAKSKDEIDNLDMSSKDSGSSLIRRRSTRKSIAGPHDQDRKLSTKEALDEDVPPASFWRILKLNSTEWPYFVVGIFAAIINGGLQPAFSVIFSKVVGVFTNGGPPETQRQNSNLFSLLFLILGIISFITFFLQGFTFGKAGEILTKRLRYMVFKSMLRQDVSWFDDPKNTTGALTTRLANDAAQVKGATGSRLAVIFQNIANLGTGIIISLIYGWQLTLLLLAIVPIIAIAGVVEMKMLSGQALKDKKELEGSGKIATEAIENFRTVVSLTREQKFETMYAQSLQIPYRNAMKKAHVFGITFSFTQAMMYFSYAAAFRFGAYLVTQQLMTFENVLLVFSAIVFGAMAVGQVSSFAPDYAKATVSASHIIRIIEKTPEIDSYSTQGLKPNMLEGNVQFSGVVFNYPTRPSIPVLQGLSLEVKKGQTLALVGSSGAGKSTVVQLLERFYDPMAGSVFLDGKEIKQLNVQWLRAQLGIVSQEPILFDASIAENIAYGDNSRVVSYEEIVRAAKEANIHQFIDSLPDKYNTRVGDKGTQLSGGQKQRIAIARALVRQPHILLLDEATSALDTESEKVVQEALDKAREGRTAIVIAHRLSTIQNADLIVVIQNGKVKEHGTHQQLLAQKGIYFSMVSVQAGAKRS
Experimental: Effects of 29 variants on binding of an ATP-analog to purified P-glycoprotein. ATP binding in the presence of the 29 variants was assessed in titration assays using a spin-labeled analog of ATP, 2′,3′-SL-ATP (2′,3′-(2,2,5,5,-tetramethyl-3-pyrroline-1-oxyl-3-carboxylic acid ester) ATP; (2′,3′ indicates a rapid equilibrium of the ester bond between the C2′ and C3′ of the ribose moiety))^48-50, and electron spin resonance spectroscopy as described in^26. Due to the lower stability of the human P-glycoprotein in the extended times needed for these experiments, the cysteineless mouse protein was used here. The goal was to assess whether binding of the 29 variants to P-gp affected nucleotide binding to the protein.
ESR Measurements. ESR measurements were as described in^26. The amount of protein-bound spin-labeled (SL) adenine nucleotide was determined as the difference between the known total concentration of SL-ATP (2′,3′-(2,2,5,5,-tetramethyl-3-pyrroline-1-oxyl-3-carboxylic acid ester) —ATP^48) added and the free spin-labeled nucleotide (SL-ANP) observed in the experiment. Hyperbolic curve fitting of the results was performed using GraphPad Prism 7 to determine maximum binding and apparent affinity for the spin-labeled nucleotide. The equation used for the fitting the curves was […], where P1 corresponds to the maximum binding of SL-ANP (moles of SL-ANP bound per mole P-gp), and P2 equals the apparent dissociation constant for SL-ANP. To quantify the amount of free SL-ANP, standard curves were established where the signal amplitude of the high field signal of the ESR spectra of free SL-ANP in the absence of protein was correlated to the concentration of SL-ANP added. All ESR measurements were performed using a Bruker EMX 6/1 ESR spectrophotometer operating in X-band mode and equipped with a high sensitivity cavity. Spectra were acquired at a microwave frequency of 9.33 GHz, microwave power of 12.63 mW, 100 kHz modulation frequency and a resolution of 1024 points. The centerfield of the scan was at 3325 G and an area of 100 G was scanned. The peak to peak modulation amplitude was 1G and the time constant was set to 10.240 ms. The conversion time was 163.84 ms, resulting in a total time sweep of 167.772 s. The signal gain was adjusted for the SL-ATP concentrations in the different experiments.

[3] = target: T2, P-gp-catalyzed transport of calcein AM in DU145TXR cells (Homo sapiens, UniProt P08183); test: Calcein AM accumulation assay; type: cell-based; details: after 6-hour pre-incubation, compared to parental 29
T2 construct: DU145 human prostate cancer cells^52 as well as the multidrug resistant sub-line, DU145TXR; endogenous in cells; host or cells: DU145TXR (paclitaxel-selected sub-line of human DU145 prostate cancer cells)
T2 sequence (P08183 whole entry): as the sequence (P08183 whole entry) above
Experimental: Accumulation and cellular retention of calcein AM in P-gp overexpressing prostate cancer cells upon incubation with Group 1 SMU-29 variants. Calcein AM accumulation assays have been used by us previously to evaluate P-gp-substrate accumulation in real time in the presence or absence of P-gp inhibitors^28. For these assays, P-gp overexpressing DU145TXR cells were incubated with the respective inhibitors in the presence of the P-gp substrate, calcein AM. Inhibition of P-gp leads to cellular accumulation of calcein AM and to cleavage of its acetoxymethyl ester groups, resulting in the generation of the highly fluorescent compound, calcein. The anionic calcein is not a substrate of P-gp and remains in the cells. In these assays, the relative fluorescence of cellular calcein was measured over time and the results of these assays are shown in FIG. 13A. […]
Calcein AM assay. To assess inhibition of P-gp-catalyzed transport of the P-gp pump substrate, calcein AM, DU145TXR cells were seeded in 96 wells plates and allowed to grow in complete medium until confluency was reached. Medium was removed, and cells were treated […] P-gp inhibitory compounds and 1 μg/mL calcein AM (Life Technologies, OR) and diluted into phenol red free RPMI 1640 media. To study the effect of pre-incubation of compounds, cells were treated with just P-gp inhibitory compounds and incubated at 37° C. for six hours before adding calcein AM. Fluorescence excitation at 485 nm with a 20 nm gate and at emission at 535 nm with a 20 nm gate was measured using a BioTek Cytation 5 imaging multi-mode reader (Bio-Tek, Winooski, Vt.) over 60 minutes in 20 minute intervals. DMSO was used as vehicle. Results were plotted as the mean with standard deviation (SD) of six replicates per concentration and are representative of at least two independent experiments.

[4] = target: T2, P-gp-catalyzed transport of calcein AM in DU145TXR cells; test: Calcein AM accumulation assay; type: cell-based; details: without pre-incubation, compared to parental 29; 5 μM stated for Group 2

## 2-{[2-(9H-flouoren-2-yl)-2-oxoethyl]}-N-[1-phenyl-3-(2,4,5-trimethylphenyl0-1H-pyrazol-5-yl]acetamide [29-216]
[1]
  Cellular accumulation: ratio of plus Tariquidar over no Tariquidar: 1.1
[2]
  Effect on SL-ANP binding: no
  Maximum ATP binding: 1.7 ± 0.1 mol SL-ANP bound/mol P-gp

## Cc1cc(C)c(-c2cc(NC(=O)CSCC(=O)N3c4ccccc4CCc4ccccc43)n(-c3ccccc3)n2)cc1C [29-227, 2-[(2-{2-azatricyclo[9.4.0.0]pentadeca-1(11),3(8},4,6,12,14-hexaen-2-yl)-2-oxoethyl)sulfanyl]-N-[1-phenyl-3-(2,4,5-trimethylphenyl)-1H-pyrazol-5-yl]acetamide]
[1]
  Cellular accumulation: ratio of plus Tariquidar over no Tariquidar: 1.0
[2]
  Effect on SL-ANP binding: no
  Maximum ATP binding: 1.8 ± 0.1 mol SL-ANP bound/mol P-gp

## Cc1cc(C)c(-c2cc(NC(=O)CSCC(=O)Nc3ccc4ccccc4c3)n(-c3ccccc3)n2)cc1C [29-231, 2-({[(naphthalen-2-yl)carbamoyl]methyl}sulfanyl)-N-[1-phenyl-3-(2,4,5-trimethylphenyl)-1H-pyrazol-5-yl]acetamide]
[1]
  Intracellular accumulation in absence vs presence of tariquidar (in words): no significant cellular accumulation
  Transport substrate for P-gp: no
[1]; human
  Cellular accumulation: ratio of plus Tariquidar over no Tariquidar: 0.9
  Transport substrate for P-gp: none of the Group 1 compounds functions as a transport substrate of P-gp
[2]
  Effect on SL-ANP binding: marginally
  Maximum ATP binding: 1.8 ± 0.1 mol SL-ANP bound/mol P-gp

## COc1cc(NC(=O)CSCC(=O)Nc2cc(-c3cc(C)c(C)cc3C)nn2-c2ccccc2)cc(OC)c1OC [29-238, N-[1-phenyl-3-(2,4,5-trimethylphenyl)-1H-pyrazol-5-yl]-2-({[(3,4,5-trimethoxyphenyl)carbamoyl]methyl}sulfanyl)acetamide]
[3]
  Calcein accumulation in DU145TXR (in words): remained strongest
[1]
  Intracellular accumulation in absence vs presence of tariquidar (in words): very large and significant increase
[1]; human
  Cellular accumulation: ratio of plus Tariquidar over no Tariquidar: 1.9
[2]
  Effect on SL-ANP binding: yes
[2]; listed as 238
  Maximum ATP binding: about 1 mol SL-ANP bound/mol P-gp
[2]; listed as SMU29-238
  Maximum ATP binding: 1.2 ± 0.1 mol SL-ANP bound/mol P-gp
[4]
  Calcein accumulation in DU145TXR (in words): considerably increased calcein accumulation

## Cc1cc(C)c(-c2cc(NC(=O)CSCC(=O)Nc3ccc4ncsc4c3)n(-c3ccccc3)n2)cc1C [29-255, 2-({[(1,3-benzothiazol-6-yl)carbamoyl]methyl}sulfanyl)-N-[1-phenyl-3-(2,4,5 trimethylphenyl)-1H-pyrazol-5-yl]acetamide]
[3]
  Calcein accumulation in DU145TXR (in words): remained strongest
[1]
  Intracellular accumulation in absence vs presence of tariquidar (in words): more modest, but statistically significant increases
[1]; human
  Cellular accumulation: ratio of plus Tariquidar over no Tariquidar: 1.2
[2]
  Effect on SL-ANP binding: no
  Maximum ATP binding: 1.9 ± 0.1 mol SL-ANP bound/mol P-gp
[4]
  Calcein accumulation in DU145TXR (in words): considerably increased calcein accumulation

## Cc1cc(C)c(-c2cc(NC(=O)CSCC(=O)NC34CC5CC(CC(C5)C3)C4)n(-c3ccccc3)n2)cc1C [29-278, 2-({[(adamantan-1-yl)carbamoyl]methyl}sulfanyl)-N-[1-phenyl-3-(2,4,5-trimethylphenyl)-1H-pyrazol-5-yl]acetamide]
[3]
  Calcein accumulation in DU145TXR (in words): increased calcein accumulation
[3]; listed as 278
  Calcein accumulation in DU145TXR (in words): comparable to 29
[1]; human
  Cellular accumulation: ratio of plus Tariquidar over no Tariquidar: 1.0
[2]
  Effect on SL-ANP binding: yes
[2]; listed as 278
  Maximum ATP binding: about 1 mol SL-ANP bound/mol P-gp
[2]; listed as SMU29-278
  Maximum ATP binding: 1.3 ± 0.1 mol SL-ANP bound/mol P-gp
[4]
  Calcein accumulation in DU145TXR (in words): less calcein accumulation than the parental compound

## Cc1cc(C)c(-c2cc(NC(=O)CSCC(=O)NC(c3ccccc3)c3ccccc3)n(-c3ccccc3)n2)cc1C [29-280, N-(diphenylmethyl)-2-[({[1-phenyl-3-(2,4,5-trimethylphenyl)-1H-pyrazol-5-yl]carbamoyl)methyl}sulfanyl]acetamide]
[3]
  Calcein accumulation in DU145TXR (in words): comparable to 29
[1]; human
  Cellular accumulation: ratio of plus Tariquidar over no Tariquidar: 1.2
[2]
  Effect on SL-ANP binding: marginally
  Maximum ATP binding: 1.6 ± 0.1 mol SL-ANP bound/mol P-gp
[4]
  Calcein accumulation in DU145TXR (in words): less calcein accumulation than the parental compound

## Cc1cc(C)c(-c2cc(NC(=O)CSCC(=O)NCc3ccc(F)cc3)n(-c3ccccc3)n2)cc1C [29-286]
[3]
  Calcein accumulation in DU145TXR (in words): comparable to 29
[1]
  Cellular accumulation: ratio of plus Tariquidar over no Tariquidar: 1.3
  Intracellular accumulation in absence vs presence of tariquidar (in words): more modest, but statistically significant increases
[2]
  Effect on SL-ANP binding: no
  Maximum ATP binding: 1.9 ± 0.1 mol SL-ANP bound/mol P-gp
[4]
  Calcein accumulation in DU145TXR (in words): comparable to 29

## Cc1cc(C)c(-c2cc(NC(=O)CSc3nnc(C4CC4)[nH]3)n(-c3ccccc3)n2)cc1C [compound 29, reference compound]
[1]
  Cellular accumulation: ratio of plus Tariquidar over no Tariquidar: 1.0
  Intracellular accumulation in absence vs presence of tariquidar (in words): no significant difference
